pKi: −log10 of the molar value. Values after ≈ are worked out from the molar mass of the structure shown.
Each compound was assayed against T1, bacterial DHFR (bDHFR) (Escherichia coli, UniProt P0ABQ4) (assay: DHFR enzyme assay, Ki determination, bacterial DHFR). Settings: Table 3; read-out: bDHFR Ki.
T1 construct: gift of Eric Brown, McMaster University
Type: biochemical, E. coli
Protocol: Human and Bacterial DHFR: E. coli DHFR was kindly provided by Eric Brown of MacMaster University.
(§1) Dihydrofolic acid and NADPH were purchased from Sigma. Enzyme assays were adapted for microtitre format from a previously published procedure (2, 3). All assays were performed in a 250 μl volume in 96-well microtitre plates. Typical assays consisted of 20 nM DHFR (human or E. coli), 100 μM NADPH, and 50 μM dihydrofolic acid in 100 mM HEPES pH 8, 10 mM KCl, and 10 mM MgCl2. The assay was monitored spectrophotometrically for the conversion of NADPH to NADP+, which results in a decrease in absorbance at 340 nm.
(§2) The reaction was initiated by the addition of 125 μl of 100 μM dihydrofolic acid. The final concentrations in the assay were 20 nM DHFR, 100 μM NADPH, 50 μM dihydrofolic acid, and a range of 500 μM to 20 nM inhibitor compound. The final DMSO concentration was 2% of the total volume. Reactions were monitored as described above.

Structure (SMILES)	pKi
Nc1nc(N)c2nc(CNc3cccc(OCc4ccccc4)c3)cnc2n1 [Compound 16]	> 7.00
COC(=O)c1ccc(N(C)Cc2cnc3nc(N)nc(N)c3n2)cc1 [Compound 17]	> 7.00
Nc1nc(N)c2nc(CNc3cc(Cl)cc(Cl)c3)cnc2n1 [Compound 11]	6.00 to 6.30
CN(Cc1cnc2nc(N)nc(N)c2n1)c1ccc(C(=O)NCc2cccnc2)cc1 [Compound 4]	> 7.00

Each compound was assayed against T2, human DHFR (hDHFR) (Homo sapiens, UniProt P00374) (assay: DHFR enzyme assay, Ki determination, human DHFR). Settings: Table 3.
T2 construct: result in the amplification of a 186 amino acid hDHFR coding region; made in house; host or cells: E. coli Top10
T2 sequence (P00374 1-187): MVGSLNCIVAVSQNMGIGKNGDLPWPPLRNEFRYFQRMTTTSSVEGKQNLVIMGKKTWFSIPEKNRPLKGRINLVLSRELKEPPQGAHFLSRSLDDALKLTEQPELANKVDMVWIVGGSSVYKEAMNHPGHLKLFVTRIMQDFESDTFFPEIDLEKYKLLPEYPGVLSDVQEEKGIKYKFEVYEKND
Type: biochemical
Protocol: The human DHFR cDNA was cloned by PCR from the Human Universal Quick-clone™ cDNA purchased from Clontech.
The PCR fragment was digested with restriction enzymes NdeI and HindIII, and then ligated into a derivative of the pKK223-3 expression vector (Amersham Pharmacia). The final expression vector (pFW96.2) was transformed into E. coli Top10 F40 and hDHFR protein was induced by the addition of 1 mM IPTG followed by incubation at 37° C. for 4 hrs. Recombinant human DHFR was purified based on a previously published procedure (2).
as §1
as §2, with “Five microliters of inhibitor compound in DMSO was added to 120 μl of enzyme solution (40 nM DHFR and 200 μM NADPH). The reaction” for “The reaction”
V=(Vmax[S])/(Km(1+I/Ki)+[S]), where S=dihydrofolate, Km=Michaelis constant for dihydrofolate, I=inhibitor concentration.

Structure (SMILES)	pKi
Nc1nc(N)c2nc(CNc3cccc(OCc4ccccc4)c3)cnc2n1 [Compound 16]	< 5.30
Nc1nc(N)c2nc(CNc3cc(Cl)cc(Cl)c3)cnc2n1 [Compound 11]	< 5.30
CN(Cc1cnc2nc(N)nc(N)c2n1)c1ccc(C(=O)NCc2cccnc2)cc1 [Compound 4]	6.00 to 6.30

What follows are compounds tested on E. coli (assay: Microdilution antimicrobial susceptibility test (MIC)). Settings: Escherichia coli; Table 2; 90% inhibition of growth.
Type: cell-based
Protocol: (§3) Stock solutions of tested compounds were prepared in N,N-dimethylformamide (DMF) at a concentration of 5 mg/mL. Working solutions of the tested compounds were then prepared from the stock solutions, in Mueller-Hinton broth (MHB) with a starting concentration of 64 μg/mL.
(§4) Bacterial inocula were prepared from overnight culture (i.e., one fresh colony from agar plate in 5 ml MHB; H. influenzae was grown in MHB with the addition of yeast extract, haematin, and NAD), centrifuged 2×5 min/3000 rpm (for S. pneumoniae and H. influenzae, 2×10 min/3000 rpm), and dispensed in 5 ml of fresh MHB each time, such that the bacterial suspension is diluted to obtain 100 colony forming units (cfu) in a microplate well (100 μl total volume).
(§5) Microplate wells were filled with two-fold dilutions of test compound (50 μl), starting with 64 μg/ml. Wells were then filled with 50 μl of bacterial inoculum (final volume: 100 μl/well). The plates were incubated at 37° C. for 18-24 hours (S. pneumoniae was grown in a CO2-enriched atmosphere).

Structure (SMILES)	MIC
Nc1nc(N)c2nc(CNc3cccc(OCc4ccccc4)c3)cnc2n1 [Compound 16]	> 64 mg/L
COC(=O)c1ccc(N(C)Cc2cnc3nc(N)nc(N)c3n2)cc1 [Compound 17]	> 64 mg/L
Nc1nc(N)c2nc(CNc3cc(Cl)cc(Cl)c3)cnc2n1 [Compound 11]	> 64 mg/L
CN(Cc1cnc2nc(N)nc(N)c2n1)c1ccc(C(=O)NCc2cccnc2)cc1 [Compound 4]	> 64 mg/L

These compounds were tested on E. faecalis in the same assay as above. Settings: Enterococcus faecalis; Table 2; 90% inhibition of growth.
Type: cell-based
Protocol: as §3, §4, §5

Structure (SMILES)	MIC
Nc1nc(N)c2nc(CNc3cccc(OCc4ccccc4)c3)cnc2n1 [Compound 16]	< 2 mg/L
COC(=O)c1ccc(N(C)Cc2cnc3nc(N)nc(N)c3n2)cc1 [Compound 17]	< 2 mg/L
Nc1nc(N)c2nc(CNc3cc(Cl)cc(Cl)c3)cnc2n1 [Compound 11]	< 2 mg/L
CN(Cc1cnc2nc(N)nc(N)c2n1)c1ccc(C(=O)NCc2cccnc2)cc1 [Compound 4]	2 to 8 mg/L (≈ 4.81 to 19.3 µM)

Each compound was assayed on H. influenzae in the same assay as above. Settings: Haemophilus influenzae, read-out: MIC H. influenzae.
Type: cell-based
Protocol: as §3, §4, §5

Structure (SMILES)	MIC
Nc1nc(N)c2nc(CNc3cc(Cl)cc(Cl)c3)cnc2n1 [Compound 11]	> 64 mg/L

Same assay, conditions: Haemophilus influenzae; Table 2; 90% inhibition of growth; read-out: MIC H. influenzae

Structure (SMILES)	MIC
Nc1nc(N)c2nc(CNc3cccc(OCc4ccccc4)c3)cnc2n1 [Compound 16]	> 64 mg/L
COC(=O)c1ccc(N(C)Cc2cnc3nc(N)nc(N)c3n2)cc1 [Compound 17]	< 2 mg/L
CN(Cc1cnc2nc(N)nc(N)c2n1)c1ccc(C(=O)NCc2cccnc2)cc1 [Compound 4]	2 to 8 mg/L (≈ 4.81 to 19.3 µM)

Each compound was assayed on M. catarrhalis in the same assay as above. Settings: Moraxella catarrhalis; Table 2; 90% inhibition of growth.
Type: cell-based
Protocol: as §3, §4, §5

Structure (SMILES)	MIC
Nc1nc(N)c2nc(CNc3cccc(OCc4ccccc4)c3)cnc2n1 [Compound 16]	< 2 mg/L
COC(=O)c1ccc(N(C)Cc2cnc3nc(N)nc(N)c3n2)cc1 [Compound 17]	< 2 mg/L
Nc1nc(N)c2nc(CNc3cc(Cl)cc(Cl)c3)cnc2n1 [Compound 11]	< 2 mg/L
CN(Cc1cnc2nc(N)nc(N)c2n1)c1ccc(C(=O)NCc2cccnc2)cc1 [Compound 4]	16 to 64 mg/L (≈ 38.5 to 154 µM)

Each compound was assayed on P. aeruginosa in the same assay as above. Settings: Pseudomonas aeruginosa; Table 2; 90% inhibition of growth.
Type: cell-based
Protocol: as §3, §4, §5

Structure (SMILES)	MIC
Nc1nc(N)c2nc(CNc3cccc(OCc4ccccc4)c3)cnc2n1 [Compound 16]	> 64 mg/L
COC(=O)c1ccc(N(C)Cc2cnc3nc(N)nc(N)c3n2)cc1 [Compound 17]	> 64 mg/L
Nc1nc(N)c2nc(CNc3cc(Cl)cc(Cl)c3)cnc2n1 [Compound 11]	> 64 mg/L
CN(Cc1cnc2nc(N)nc(N)c2n1)c1ccc(C(=O)NCc2cccnc2)cc1 [Compound 4]	> 64 mg/L

Each compound was assayed on S. aureus in the same assay as above. Settings: Staphylococcus aureus; Table 2; 90% inhibition of growth; read-out: MIC S. aureus.
Type: cell-based
Protocol: as §3, §4, §5

Structure (SMILES)	MIC
Nc1nc(N)c2nc(CNc3cccc(OCc4ccccc4)c3)cnc2n1 [Compound 16]	< 2 mg/L
COC(=O)c1ccc(N(C)Cc2cnc3nc(N)nc(N)c3n2)cc1 [Compound 17]	< 2 mg/L
Nc1nc(N)c2nc(CNc3cc(Cl)cc(Cl)c3)cnc2n1 [Compound 11]	< 2 mg/L
CN(Cc1cnc2nc(N)nc(N)c2n1)c1ccc(C(=O)NCc2cccnc2)cc1 [Compound 4]	16 to 64 mg/L (≈ 38.5 to 154 µM)

What follows are compounds tested on S. pneumoniae in the same assay as above. Settings: Streptococcus pneumoniae; Table 2; 90% inhibition of growth.
Type: cell-based
Protocol: as §3, §4, §5

Structure (SMILES)	MIC
Nc1nc(N)c2nc(CNc3cccc(OCc4ccccc4)c3)cnc2n1 [Compound 16]	< 2 mg/L
COC(=O)c1ccc(N(C)Cc2cnc3nc(N)nc(N)c3n2)cc1 [Compound 17]	< 2 mg/L
Nc1nc(N)c2nc(CNc3cc(Cl)cc(Cl)c3)cnc2n1 [Compound 11]	< 2 mg/L
CN(Cc1cnc2nc(N)nc(N)c2n1)c1ccc(C(=O)NCc2cccnc2)cc1 [Compound 4]	2 to 8 mg/L (≈ 4.81 to 19.3 µM)

The compounds below were run on S. cerevisiae (assay: Microdilution susceptibility test (MIC), yeast as indicator of cytotoxicity). Settings: Saccharomyces cerevisiae; Table 2; 90% inhibition of growth.
Type: cell-based
Description: The following table of compounds of one aspect of the invention have potent antimicrobial activity against S. aureus bacteria and are anticipated to have physical-chemical properties similar to those of orally absorbed and bioavailable drugs and drug-like compounds. Antibacterial activity for a variety of bacterial species are shown (S. aureus, S. pneumoniae, E. faecalis, M. catarrhalis, and H. influenzae). The yeast cell (S. cerevisiae) in this panel of organisms is an indicator of potential cytotoxicity in mammalian cells.
as §3, §5

Structure (SMILES)	MIC
Nc1nc(N)c2nc(CNc3cccc(OCc4ccccc4)c3)cnc2n1 [Compound 16]	> 64 mg/L
COC(=O)c1ccc(N(C)Cc2cnc3nc(N)nc(N)c3n2)cc1 [Compound 17]	> 64 mg/L
Nc1nc(N)c2nc(CNc3cc(Cl)cc(Cl)c3)cnc2n1 [Compound 11]	> 64 mg/L
CN(Cc1cnc2nc(N)nc(N)c2n1)c1ccc(C(=O)NCc2cccnc2)cc1 [Compound 4]	> 64 mg/L
